Assay results from patent US11498899B2, “Nitrone herbicides” (FMC Corporation, priority 2016, dated 2022).

Experiments:
[1] = tested on: barnyardgrass (Echinochloa crus-galli); experiment: Test B flooded paddy test, visual rating 0-100; details: Flood, 250 g ai/ha, applied to paddy water, rated after 13 to 15 days
[2] = tested on: barnyardgrass (Echinochloa crus-galli); experiment: Test A preemergence, visual injury rating 0-100 (0 no effect, 100 complete control); type: in vivo; details: for Barnyardgrass plant response rating: 31 g ai/ha, 0 to 100 scale (0 no effect, 100 complete control), approx. 10 days; for Barnyardgrass plant response rating (0 to 100 scale): 125 g ai/ha
[3] = tested on: foxtail, green (green foxtail, Setaria viridis); experiment: Test A preemergence, visual injury rating 0-100; type: in vivo; details: for Foxtail, Green plant response rating: 31 g ai/ha, 0 to 100 scale (0 no effect, 100 complete control), approx. 10 days; for Foxtail, Green plant response rating (0 to 100 scale): 125 g ai/ha
[4] = tested on: ragweed (common ragweed, Ambrosia elatior); experiment: Test A preemergence, visual injury rating 0-100; type: in vivo; details: for Ragweed plant response rating: 31 g ai/ha, 0 to 100 scale (0 no effect, 100 complete control), approx. 10 days; for Ragweed plant response rating (0 to 100 scale): 125 g ai/ha
[5] = tested on: ryegrass, Italian (Italian ryegrass, Lolium multiflorum); experiment: Test A preemergence, visual injury rating 0-100; type: in vivo; details: for Ryegrass, Italian plant response rating: 31 g ai/ha, 0 to 100 scale (0 no effect, 100 complete control), approx. 10 days; for Ryegrass, Italian plant response rating (0 to 100 scale): 125 g ai/ha
kochia (Kochia scoparia) [6] = experiment: Test A preemergence, visual injury rating 0-100; type: in vivo; details: for Kochia plant response rating: 31 g ai/ha, 0 to 100 scale (0 no effect, 100 complete control), approx. 10 days; for Kochia plant response rating (0 to 100 scale): 125 g ai/ha
[7] = tested on: pigweed (Amaranthus retroflexus); experiment: Test A preemergence, visual injury rating 0-100; type: in vivo; details: for Pigweed plant response rating: 31 g ai/ha, 0 to 100 scale (0 no effect, 100 complete control), approx. 10 days; for Pigweed plant response rating (0 to 100 scale): 125 g ai/ha
[8] = tested on: ducksalad (Heteranthera limosa); experiment: Test B flooded paddy test, visual rating 0-100; details: Flood, 250 g ai/ha, applied to paddy water, rated after 13 to 15 days
corn (Zea mays) = experiment: Test A postemergence, visual injury rating 0-100; type: in vivo; details: 0 to 100 scale
[9] = tested on: foxtail, green (green foxtail, Setaria viridis); experiment: Test A postemergence, visual injury rating 0-100; type: in vivo; details: 0 to 100 scale
[10] = tested on: ragweed (common ragweed, Ambrosia elatior); experiment: Test A postemergence, visual injury rating 0-100; type: in vivo; details: 0 to 100 scale
[11] = tested on: ryegrass, Italian (Italian ryegrass, Lolium multiflorum); experiment: Test A postemergence, visual injury rating 0-100; type: in vivo; details: 0 to 100 scale
kochia (Kochia scoparia) [12] = experiment: Test A postemergence, visual injury rating 0-100; type: in vivo; details: 0 to 100 scale
[13] = tested on: barnyardgrass (Echinochloa crus-galli); experiment: Test A postemergence, visual injury rating 0-100; type: in vivo; details: 0 to 100 scale
[14] = tested on: pigweed (Amaranthus retroflexus); experiment: Test A postemergence, visual injury rating 0-100; type: in vivo; details: 0 to 100 scale
[15] = tested on: wheat (Triticum aestivum); experiment: Test A postemergence, visual injury rating 0-100; type: in vivo; details: 0 to 100 scale
[16] = tested on: galium (catchweed bedstraw, Galium aparine); experiment: Test A postemergence, visual injury rating 0-100; type: in vivo; details: 0 to 100 scale
[17] = tested on: blackgrass (Alopecurus myosuroides); experiment: Test A postemergence, visual injury rating 0-100; type: in vivo; details: 0 to 100 scale
rice (Oryza sativa) = experiment: Test B flooded paddy test, visual rating 0-100 (0 no effect, 100 complete control); details: Flood, 250 g ai/ha, applied to paddy water, rated after 13 to 15 days

Row | Compound | Barnyardgrass plant response rating (0 to 100 scale) [1] | Barnyardgrass plant response rating [2] | Barnyardgrass plant response rating (0 to 100 scale) [2] | Foxtail, Green plant response rating [3] | Foxtail, Green plant response rating (0 to 100 scale) [3] | Ragweed plant response rating [4] | Ragweed plant response rating (0 to 100 scale) [4] | Ryegrass, Italian plant response rating [5] | Ryegrass, Italian plant response rating (0 to 100 scale) [5] | Kochia plant response rating (kochia (Kochia scoparia) [6]) | Kochia plant response rating (0 to 100 scale) (kochia (Kochia scoparia) [6]) | Pigweed plant response rating [7] | Pigweed plant response rating (0 to 100 scale) [7] | Ducksalad plant response rating (0 to 100 scale) [8] | Corn plant response rating (corn (Zea mays); 31 g ai/ha) | Corn plant response rating (corn (Zea mays); 125 g ai/ha) | Foxtail, Green plant response rating ([9]; 31 g ai/ha) | Foxtail, Green plant response rating ([9]; 125 g ai/ha) | Ragweed plant response rating ([10]; 31 g ai/ha) | Ragweed plant response rating ([10]; 125 g ai/ha) | other results
1 | CC1=[N+]([O-])[C@H](C(=O)Nc2cccc(F)c2F)[C@@H](c2ccc(C(F)(F)F)cc2)C1 [Compound 30, (2S,3R)—N-(2,3-difluorophenyl)-3,4-dihydro-5-methyl-3-[4-(trifluoromethyl)phenyl]-2H-pyrrole-2-carboxamide 1-oxide] | 85 | 100 | 100 | 100 | 100 | 30 | 90 | 0 | 90 | 0 | 80 | 0 | 90 | 100 | 0 | 70 | 30 | 80 | 0 | 40 | melting point: 113 to 117 °C; Ryegrass, Italian plant response rating ([11]; 31 g ai/ha): 20; Ryegrass, Italian plant response rating ([11]; 125 g ai/ha): 50; Kochia plant response rating (kochia (Kochia scoparia) [12]; 31 g ai/ha): 0; Kochia plant response rating (kochia (Kochia scoparia) [12]; 125 g ai/ha): 0; Barnyardgrass plant response rating ([13]; 31 g ai/ha): 30; Barnyardgrass plant response rating ([13]; 125 g ai/ha): 70; Pigweed plant response rating ([14]; 31 g ai/ha): 20; Pigweed plant response rating ([14]; 125 g ai/ha): 30; Wheat plant response rating ([15]; 31 g ai/ha): 40; Wheat plant response rating ([15]; 125 g ai/ha): 50; Galium plant response rating ([16]; 31 g ai/ha): 50; Galium plant response rating ([16]; 125 g ai/ha): 50; Blackgrass plant response rating ([17]; 31 g ai/ha): 30; Blackgrass plant response rating ([17]; 125 g ai/ha): 60; Rice plant response rating (0 to 100 scale) (rice (Oryza sativa)): 50
2 | CC1=[N+]([O-])[C@@H](C(=O)Nc2cccc(F)c2F)[C@H](c2cccc(C(F)(F)F)c2)C1 [Compound 45] | 75 | 40 | 100 | 90 | 100 | 0 | 80 | 10 | 80 | 0 | 20 | 0 | 0 | 95 | 40 | 50 | 30 | 80 | 0 | 0 | Ryegrass, Italian plant response rating ([11]; 31 g ai/ha): 10; Ryegrass, Italian plant response rating ([11]; 125 g ai/ha): 40; Kochia plant response rating (kochia (Kochia scoparia) [12]; 31 g ai/ha): 0; Kochia plant response rating (kochia (Kochia scoparia) [12]; 125 g ai/ha): 0; Barnyardgrass plant response rating ([13]; 31 g ai/ha): 10; Barnyardgrass plant response rating ([13]; 125 g ai/ha): 50; Pigweed plant response rating ([14]; 31 g ai/ha): 0; Pigweed plant response rating ([14]; 125 g ai/ha): 20; Wheat plant response rating ([15]; 31 g ai/ha): 30; Wheat plant response rating ([15]; 125 g ai/ha): 60; Galium plant response rating ([16]; 31 g ai/ha): 20; Galium plant response rating ([16]; 125 g ai/ha): 30; Blackgrass plant response rating ([17]; 31 g ai/ha): 20; Blackgrass plant response rating ([17]; 125 g ai/ha): 60; Rice plant response rating (0 to 100 scale) (rice (Oryza sativa)): 0
